Laboratory results taken from publication PMC10439028, “SGLT5 is the renal transporter for 1,5-anhydroglucitol, a major player in two rare forms of neutropenia” (Cellular and Molecular Life Sciences: CMLS, 2023).
Entries after “also recorded” stand apart in the source; their conditions may differ.

Target: T1, human SGLT4 (Homo sapiens, UniProt Q2M3M2)
T1 construct: expressed in transfected cells
T1 sequence (Q2M3M2 1-681): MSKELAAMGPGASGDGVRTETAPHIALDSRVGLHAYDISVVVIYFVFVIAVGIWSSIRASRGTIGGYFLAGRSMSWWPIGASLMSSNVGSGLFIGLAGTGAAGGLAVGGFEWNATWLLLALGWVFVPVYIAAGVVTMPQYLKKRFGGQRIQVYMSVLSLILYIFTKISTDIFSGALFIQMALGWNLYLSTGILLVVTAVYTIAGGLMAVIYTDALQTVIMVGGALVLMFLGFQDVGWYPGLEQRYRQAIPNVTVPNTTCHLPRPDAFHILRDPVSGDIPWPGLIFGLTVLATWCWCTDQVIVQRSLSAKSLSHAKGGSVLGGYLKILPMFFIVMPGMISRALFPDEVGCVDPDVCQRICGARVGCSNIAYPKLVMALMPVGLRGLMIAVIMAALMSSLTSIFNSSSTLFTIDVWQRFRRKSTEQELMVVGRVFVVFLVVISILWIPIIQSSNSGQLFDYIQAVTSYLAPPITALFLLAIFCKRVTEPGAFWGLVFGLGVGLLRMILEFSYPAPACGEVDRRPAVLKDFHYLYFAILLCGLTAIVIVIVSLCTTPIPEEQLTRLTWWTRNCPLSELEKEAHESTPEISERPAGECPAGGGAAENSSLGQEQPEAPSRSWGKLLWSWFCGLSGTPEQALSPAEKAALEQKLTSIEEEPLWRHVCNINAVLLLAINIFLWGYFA
Assay: Radioactive uptake assay (saturation kinetics) in HEK293T cells stably overexpressing human SGLT4
Type: cell-based
Excerpt: This assay was used to study (1) the transport of 1,5-AG or mannose by the HEK293T model cell lines that stably overexpressed the various transporters or by the transiently transfected HEK293T cells using JetPEI® as a transfection agent prepared as described above and (2) the substrate specificity of each transporter.
For a typical transporter experiment we proceeded as follows. […] To minimize cell loss during the various washing steps in the radioactive uptake experiments, the wells where the cells were seeded were previously coated with poly- D-lysine, which improved their adhesion to the plastic surface of the wells. For this, each well of the 24-well plates was treated with 200 µl of a 0.01% poly-L-lysine solution for 10 min, washed 3 times with 1 ml of sterilized water and left to dry for 2 h. Only then could the 24-well plates be seeded with the appropriate cell lines and cultured overnight at 37 °C in 5% CO2.
On day two, the radioactive uptake assay could be performed. The cell culture media was removed by aspiration and cells were incubated for 20 min at 37 °C and 5% CO2 with a basal medium (10 mM HEPES, pH 7.4, 1 mM CaCl2, 1 mM MgCl2, 2 mM KCl) containing 140 mM choline chloride to deplete intracellular […] ions. This was subsequently replaced with the uptake medium (basal medium + 140 mM NaCl, 25 μM cytochalasin B, 1 mg/ml BSA) containing either radioactive U-[^14C]-mannose (15,000 cpm/well) or 2-[^3H]-1,5-AG (30,000 cpm/well) and respectively, non-radioactive mannose or 1,5-AG, at the required concentration in the experiment. […]
Once the uptake medium was added to the cells, the plates were incubated at 37 °C in 5% CO2 during the required time. […] In each experiment, the transport activities were calculated after subtracting a “blank” value, corresponding to the radioactivity in the appropriate control cells (HEK293T cells that were stably or transiently transfected with one of the parent plasmids pEF6/MycHisA, pEF6HisB, pUB82 or pUB83 with no inserted cDNA) that were analyzed in parallel.

SMILES | transport of 1,5-AG by human SGLT4 (concentrations in the physiological range) | SGLT4 better than SGLT5 to transport mannose (assuming similar expression of the transporters in the cell lines) | hSGLT4 Vmax (transport of the labelled substrate, Fig. 2B) [pmol/min/10^5 cells]
OC[C@H]1OC[C@H](O)[C@@H](O)[C@@H]1O [1,5-AG, 1,5-anhydroglucitol] | does not transport; also recorded: undetectable | – | –
OC[C@H]1OC(O)[C@@H](O)[C@@H](O)[C@@H]1O (stereo partly drawn) [Mannose, mannose] | – | approximately tenfold better | 16.6 ± 0.5
